Molecular target: Voltage-gated inwardly rectifying potassium channel KCNH2 (Homo sapiens, UniProt Q12809)
Experiment: hERG Inhibition Assay: Compounds were solubilised to 100 mM in DMSO before dilution in HBPS to 300 μM. 6-Point concentration-response curves were generated using 3.16-fold serial dilutions from the top test concentration. Procedure: Electrophysiological recordings were made from a Chinese Hamster Ovary cell line stably expressing the full-length hERG potassium channel. Single cell ionic currents were measured in whole-cell patch clamp configuration at room temperature (21-23° C.) using the QPatch HTX platform (Sophion). Intracellular solution contained (mM): 120 KF, 20 KCl, 10 EGTA, 10 HEPES and was buffered to pH 7.3. The extracellular solution (HEPES-buffered physiological saline, HBPS) contained (mM): 145 NaCl, 4 KCl, 2 CaCl2, 1 MgCl2, 10 HEPES, 10 glucose, buffered to pH7.4. Cells were clamped at a holding potential of −80 mV. Cells were stepped to +20 mV for 2 s then −40 mV for 3s before returning to the holding potential. This sweep was repeated 10 times at 10 s intervals. hERG currents were measured from the tail step and referenced to the holding current.

Voltage-gated inwardly rectifying potassium channel KCNH2, sequence (Q12809 whole entry): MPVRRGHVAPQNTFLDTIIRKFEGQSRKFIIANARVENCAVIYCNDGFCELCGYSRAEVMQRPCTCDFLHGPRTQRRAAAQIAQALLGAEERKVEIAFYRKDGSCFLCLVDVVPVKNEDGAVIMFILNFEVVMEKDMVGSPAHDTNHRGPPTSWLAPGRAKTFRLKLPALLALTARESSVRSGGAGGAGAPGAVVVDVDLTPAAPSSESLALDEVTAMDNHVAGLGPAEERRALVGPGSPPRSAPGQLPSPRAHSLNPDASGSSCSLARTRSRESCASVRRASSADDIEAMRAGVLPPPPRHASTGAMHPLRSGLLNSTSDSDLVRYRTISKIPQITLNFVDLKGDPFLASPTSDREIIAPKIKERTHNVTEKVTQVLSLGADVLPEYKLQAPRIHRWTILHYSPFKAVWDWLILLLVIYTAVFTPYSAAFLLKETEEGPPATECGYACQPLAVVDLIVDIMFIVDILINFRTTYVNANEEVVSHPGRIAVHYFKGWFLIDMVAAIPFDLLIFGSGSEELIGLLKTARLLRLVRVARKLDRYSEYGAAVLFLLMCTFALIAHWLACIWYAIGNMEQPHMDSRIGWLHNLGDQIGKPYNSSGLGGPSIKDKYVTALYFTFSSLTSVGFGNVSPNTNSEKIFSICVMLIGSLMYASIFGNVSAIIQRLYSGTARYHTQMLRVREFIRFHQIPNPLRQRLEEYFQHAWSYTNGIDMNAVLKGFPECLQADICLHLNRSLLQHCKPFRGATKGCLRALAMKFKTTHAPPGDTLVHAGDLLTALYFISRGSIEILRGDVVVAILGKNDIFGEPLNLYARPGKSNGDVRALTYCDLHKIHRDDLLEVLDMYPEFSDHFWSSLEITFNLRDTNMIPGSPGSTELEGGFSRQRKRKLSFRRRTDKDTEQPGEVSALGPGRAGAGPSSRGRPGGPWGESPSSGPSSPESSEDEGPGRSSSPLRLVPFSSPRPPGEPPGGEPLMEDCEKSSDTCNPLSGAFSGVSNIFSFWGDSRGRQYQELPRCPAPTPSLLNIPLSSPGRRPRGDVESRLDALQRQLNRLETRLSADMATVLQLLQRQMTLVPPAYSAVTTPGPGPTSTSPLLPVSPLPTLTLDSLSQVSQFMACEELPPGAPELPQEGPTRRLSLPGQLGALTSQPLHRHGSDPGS

Compound: Cn1c(=O)cnc2cc(F)c(OCCNC[C@H]3CN(c4cnc5c(n4)NC(=O)CO5)C(=O)O3)nc21
- IC50: 98 µM
